Like-named read-outs stand apart in the source and are kept apart here. Marks after values point to notes of the source that are not given here. Ends that are not written are not given here.
Tests used:
[1] = target: T1, Mammalian (Human) 20s Proteasome (Homo sapiens, UniProt P25788); conditions: Gaczynska, et al. (2003); cited from earlier work
T1 construct: purchased Boston Biochem (Cambridge, Mass.)

[2] = tested on: genes regulating the NF-κB pathway in human umbilical vein endothelial cells (HUVEC); assay: NF-κB pathway-specific gene expression microarray in HUVEC treated with PR peptides; type: cell-based; conditions: for overall inhibitory effect on NF-κB pathway-related gene expression (in words): FIG. 1, averaged % inhibition over 13 down-regulated genes, relative to PR11; for AKT1 gene expression / ATF2 gene expression / CREB1 gene expression / ELK3 gene expression / JNK1 gene expression / MEK4 gene expression / MEKK1 gene expression / MEKK2 gene expression / NF-κB1 gene expression / NF-κB2 gene expression / P38 MAPK gene expression / RANK gene expression / RIP gene expression / TAK1 gene expression / TBK1 gene expression / TRAF6 gene expression: PR peptides 1 μM, 8 hours, relative to untreated controls
Method: Cell Culture. Human umbilical vein endothelial cells (HUVEC, Cambrex Bio Science Walkersville, Inc., East Rutherford, N.J.) were cultured in endothelial cell basal medium-2 supplemented with EGM-2 SINGLEQUOTS (Cambrex Bio Science Walkersville, Inc.) and FBS. Confluent HUVEC, passage 3-5, were starved overnight in medium supplemented with 0.5% FBS, 0.25% BSA and incubated with PR peptides (1 μM) for 8 hours in starvation medium.
Total RNA Extraction and Gene Profiling by Microarray. Total RNA extraction was performed using the RNEASY mini kit protocol (QIAGEN, Valencia, Calif.). The quality and quantity of total RNA was determined using RNA 6000 Nano chips (Agilent Technology, Santa Clara, Calif.).
Gene profiling was performed using pathway-specific gene expression array for NF-κB signaling transduction (HS-016.2, SuperArray Bioscience Corp.). A total of 96 cDNA fragments from genes related to NF-κB mediated signal transduction, including: NF-κB/IκB family, NF-κB responsive genes (adhesion molecules, cytokines), extracellular ligands, transmembrane receptors, adaptor proteins, signal transduction kinases, and transcription factors were printed in tetraspot format on 3.8×4.8 cm nylon array membrane. Total RNA (0.5 μg) was reverse-transcribed into cDNA labeled with biotin-dUTP according to the manufacture's protocol. After overnight hybridization at 60° C., array membranes were treated with alkaline phosphate-conjugated streptavidin followed by chemiluminescent alkaline phosphate substrate CDP-star (Applied Biosystems, Foster City, Calif.) and exposed to X-ray film. The data were extracted from raw images using […] software (SuperArray, Bioscience Corp.). After background subtraction, the level of gene expression was determined as signal intensity units relative to total array intensity signal. Statistical significant altered genes (PR peptides vs. control) at P values <0.05 were analyzed by Student's t-test, 2-tailed distribution. The data were expressed as fold change PR peptides relative to controls (untreated cells kept in similar conditions).

[3] = target: T1, Mammalian (Human) 20s Proteasome; assay: Chymotrypsin-like (ChT-L) peptidase activity of 20S proteasome, N-succinyl-LLVY-AMC substrate; type: biochemical; conditions: chymotrypsin-like activity; for IC50: 15-minute pre-incubation, 1 hour at 37° C., pH 7.5, 0.03% SDS, read-out: I50
Method: Determination of Enzymatic Activity. Mammalian (Human) 20s Proteasome was purchased from Boston Biochem (Cambridge, Mass.); substrate, N-succinyl-LLVY-AMC was purchased from SIGMA (St. Louis, Mo.); and negative control, Lactacystin, was purchased from SIGMA. […] Activity was determined by measuring the amount of a fluorescence observed upon release of the MCA group after a 1 hour incubation at 37° C. in 50 mM sodium phosphate buffer at pH 7.5 containing 0.03% SDS. Inhibition by PR-peptide was measured after a 15-minute pre-incubation at 37° C. of each peptide with 20S proteasome, followed by the addition of the substrate and the one hour incubation.

Sequence	overall inhibitory effect on NF-κB pathway-related gene expression (in words) [2]	AKT1 gene expression ([2]; HUVEC)	ATF2 gene expression ([2]; HUVEC)	CREB1 gene expression ([2]; HUVEC)	ELK3 gene expression ([2]; HUVEC)	JNK1 gene expression ([2]; HUVEC)	MEK4 gene expression ([2]; HUVEC)	MEKK1 gene expression ([2]; HUVEC)	MEKK2 gene expression ([2]; HUVEC)	NF-κB1 gene expression ([2]; HUVEC)	NF-κB2 gene expression ([2]; HUVEC)	P38 MAPK gene expression ([2]; HUVEC)	RANK gene expression ([2]; HUVEC)	RIP gene expression ([2]; HUVEC)	TAK1 gene expression ([2]; HUVEC)	TBK1 gene expression ([2]; HUVEC)	TRAF6 gene expression ([2]; HUVEC)	IC50 [3]	also measured
RRRPRPPY [PR8]																			20S proteasome inhibiting activity (in words) [1]: does not inhibit 20S activity
ARRPRPPYLPR [Peptide A1]	dramatically reduced PR11 activity	1.3 fold change	−1.4* fold change	−1.4 fold change	0.9 fold change	−1.1 fold change	−0.9 fold change	−1.0 fold change	−1.2 fold change	−1.1 fold change	−1.1 fold change	−1.1 fold change	1.2 fold change	−0.9 fold change	−1.4* fold change	−1.4* fold change	−1.1 fold change	2810 nM	
RARPRPPYLPR [Peptide A2]	dramatically reduced PR11 activity	1.4 fold change	−1.2 fold change	−1.4 fold change	1.0 fold change	−1.5 fold change	−1.9 fold change	−1.8 fold change	−0.9 fold change	−1.2 fold change	−0.8 fold change	−0.9 fold change	1.4 fold change	−1.1 fold change	−0.8 fold change	−1.3 fold change	−1.1 fold change	2770 nM	
KKKPRPPYLPR [KKK]	lowest inhibitory effect in this series	1.7 fold change	−1.3 fold change	−1.3 fold change	1.4^# fold change	−2.5 fold change	−2.8* fold change	−2.0 fold change	−1.5 fold change	−2.4 fold change	−1.4 fold change	−1.3 fold change	1.2 fold change	−2.6 fold change	−2.9* fold change	−1.8^# fold change	−1.3 fold change	2710 nM	number of significantly reduced genes ([2]; HUVEC, of the 13 down-regulated genes of Tables 5 and 6): 3 genes
RRRPRPPYLPRW [Peptide W12]		2.5^# fold change	−2.7^# fold change	−1.6 fold change	1.3^# fold change	−5.3* fold change	−4.0^# fold change	−4.6* fold change	−2.4^# fold change	−2.6 fold change	−1.9* fold change	−2.5^# fold change	2.1^# fold change	−5.5* fold change	−2.0^# fold change	−4.7^# fold change	−3.1* fold change		20S proteasome inhibiting activity (in words) [3]: did not noticeably alter PR11 activity

Source: patent US8030446B2, “Mutant proline-and-arginine rich peptides and methods for using the same” (Trustees of Dartmouth College, priority 2006, dated 2011)
